{"source": "patent US12371676B2", "about": "“Circularly permutated haloalkane transferase fusion molecules” (MAX-PLANCK-GESELLSCHAFT ZUR FÖRDERUNG DER WISSENSCHAFTEN E. …, priority 2019, dated 2025)", "key": {"HaloTag7D106A [1]": {"biological_target": "T1, HaloTag7D106A (Rhodococcus rhodochrous, UniProt P0A3G2, A155T/A167V/A172T/A224E/C128F/C176G/D106A/D78G/E160K/E257K/H272N/K175M/K195N/L47V/L88M/N227D/P291S/S2A/S58T/T264A/Y273L/Y87F)", "T1 construct": "made in house", "T1 sequence (P0A3G2 other isoform, or with tags, fused parts or gaps with the stated changes)": "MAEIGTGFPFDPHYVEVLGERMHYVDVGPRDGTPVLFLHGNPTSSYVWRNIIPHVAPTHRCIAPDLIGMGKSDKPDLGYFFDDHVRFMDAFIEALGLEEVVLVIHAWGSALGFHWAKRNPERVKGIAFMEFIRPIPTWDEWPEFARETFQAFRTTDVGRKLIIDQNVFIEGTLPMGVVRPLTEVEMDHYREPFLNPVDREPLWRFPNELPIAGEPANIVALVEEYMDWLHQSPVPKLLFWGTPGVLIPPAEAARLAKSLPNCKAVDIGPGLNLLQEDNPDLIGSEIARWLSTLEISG", "test": "FP binding assay of fluorescent HaloTag ligands", "protocol": "FIG. 2 Affinities of fluorescent Halo Tag™ ligands to HaloTag7D106A: The catalytically dead variant HaloTag7D106A was titrated against 5 different fluorescent HaloTag™ ligands at 25 nM in an FP binding assay (Halo-carbopyronine, Halo-TMR, Halo-TMR-azetidine, Halo-Oregon Green™, Halo Alexa Fluor™ 488). Structures of the fluorescent ligands are shown in each graph. Data points at 0.1 nM and 1 nM correspond to values without any protein added, but were placed at low concentrations to appear on the logarithmic scale. All experiments were performed in triplicates, error bars and annotated uncertainties represent standard deviations.\n(§1) The inventors decided to perform the experiment with some representative fluorescent HaloTag™ substrates. An exchange of the aspartate106 residue in the active site by an alanine, removes the nucleophile responsible for the self labeling reaction and eliminates the catalytic activity of the protein. Catalytically dead mutants of HaloTag™ 7 (HaloTag™ 7D106A) and cpHaloΔ9mer (cpHalo_9merD106A) were generated to measure substrate affinities without displacement of the equilibrium by the enzymatic reaction.\nAffinities for the different fluorescent substrates towards HaloTag™ 7D106A were determined in an FP binding assay (FIG. 2), while affinities of fluorogenic silcon-rhodamine derived substrates were measured by a fluorescence intensity based binding assay (FIG. 3), since binding of the fluorogenic ligands by HaloTag™ 7 engenders a strong increase of fluorescence. In both cases Halo Tag7D106A concentrations ranging from 0 μM to 100 μM were titrated against 25 nM of dye. […] The observed affinities are in agreement with labelling kinetics recorded with different substrates (data not shown). In general, fluorogenic substrates have lower affinities to HaloTag7D106A than non-fluorogenic substrates, except for Halo-Alexa Fluor™ 488 that features an affinity in the same range. Additionally, within the Silicon rhodamine derivatives the presence of an azetidine or 3-fluoroazetidine moiety has an influence on the binding affinity which is more pronounced compared to the rhodamine structure. Affinities of fluorescent HaloTag™ ligands presenting the best affinities for HaloTag™ 7 were tested with cpHaloΔ9merD106A in an FP binding assay and results were compared to the measurements with HaloTag7D106A (FIG. 4, table 1)."}, "cpHaloΔ9merD106A": {"biological_target": "cpHaloΔ9merD106A (Rhodococcus rhodochrous, UniProt P0A3G2, A167V/A172T/A224E/A292T/C128F/C176G/D106A/D78G/E160K/E257K, form not given/H272N/K175M/K195N/L47V/L88M/N227D/P291S/S58T/T264A/Y273L/Y87F)", "sequence (P0A3G2 other isoform, or with tags, fused parts or gaps with the stated changes, form open)": "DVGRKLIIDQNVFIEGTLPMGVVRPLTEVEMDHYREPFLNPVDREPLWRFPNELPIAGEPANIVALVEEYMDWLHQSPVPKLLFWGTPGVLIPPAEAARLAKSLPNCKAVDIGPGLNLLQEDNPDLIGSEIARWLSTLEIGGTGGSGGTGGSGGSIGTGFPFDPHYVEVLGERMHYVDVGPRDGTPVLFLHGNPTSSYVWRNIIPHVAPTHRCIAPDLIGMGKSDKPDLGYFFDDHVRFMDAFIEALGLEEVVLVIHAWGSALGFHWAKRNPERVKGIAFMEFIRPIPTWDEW", "test": "FP binding assay of fluorescent HaloTag ligands", "settings": "25 nM dye", "protocol": "FIG. 4 Comparison of HaloTag™ 7D106A and cpHaloΔ9merD106A fluorescent substrate binding: The catalytically dead variant […] (blue) was titrated against 3 different fluorescent Halo Tag™ ligands at 25 nM in an FP binding assay (Halo-TMR, Halo-TMR-azetidine and Halo-carbopyronine). Structures of the respective fluorescent ligands are shown above each graph. Data were fitted to a one-site binding model and derived Kd values are shown in the graphs. Data points at 0.01 nM and 0.1 nM correspond to values without any protein added, but were placed at low concentrations to appear on the logarithmic scale. Data were compared to HaloTag™ 7D106A binding of the same fluorophores (red). Differences in binding affinity are indicated by the relative fold change of Kd values. All experiments were performed in triplicate, error bars represent standard deviations.\nas §1\n(§2) Affinities for the different fluorescent substrates towards HaloTag™ 7D106A were determined in an FP binding assay (FIG. 2), while affinities of fluorogenic silcon-rhodamine derived substrates were measured by a fluorescence intensity based binding assay (FIG. 3), since binding of the fluorogenic ligands by HaloTag™ 7 engenders a strong increase of fluorescence. In both cases Halo Tag7D106A concentrations ranging from 0 μM to 100 μM were titrated against 25 nM of dye. […] The observed affinities are in agreement with labelling kinetics recorded with different substrates (data not shown). […]"}, "cpHaloΔ9mer": {"biological_target": "T2, cpHaloΔ9mer (Rhodococcus rhodochrous, UniProt P0A3G2, C128F/D78G/L47V/L88M/S58T/Y87F)", "T2 construct": "made in house", "T2 sequence (P0A3G2 other isoform, or with tags, fused parts or gaps L47V/S58T/D78G/Y87F/L88M/C128F)": "as the sequence (P0A3G2 other isoform, or with tags, fused parts or gaps with the stated changes, form open) above, with A258D counted along it", "test": "Background labelling of cpHaloΔ9mer by in gel fluorescence", "type": "biochemical", "settings": "cpHaloΔ9mer 1 μM, 2 μM fluorescent ligand, 37° C.", "protocol": "FIG. 5 Background labeling of cpHaloΔ9mer: Background labeling of cpHaloΔ9mer (1 μM) in presence of 2 μM fluorescent ligands (at 37° C.) was determined via in gel fluorescence measurements. Samples were denatured and analysed via SDS-PAGE followed by in gel fluorescence scanning (top; gel is represented in false colors to highlight dim bands). Intensities were normalized to Halo Tag™ 7 labeled with the respective fluorophore (bottom).\nA well performing protein complementation assay requires a low background. The inventors thus measured the extent of background labelling of cpHaloΔ9mer with different fluorophores (Halo-TMR, Halo-CPY and Halo-SiR). Therefore, cpHaloΔ9mer was incubated with an excess of the different fluorescent ligands.\nThe labelling efficiency at 37° C. and at different time points was determined via in gel fluorescence measurements (FIG. 5). […] These findings are in accordance to fluorescent ligand affinities (FIG. 4). Indeed, Halo-CPY has the highest affinity to cpHaloΔ9mer and already presents some affinity for the ligand at 2 μM engendering a labelling which still remains marginal considering the experimental setup."}, "HaloTag7D106A [2]": {"biological_target": "T1, HaloTag7D106A", "test": "Fluorescence intensity based binding assay of fluorogenic HaloTag ligands", "settings": "25 nM fluorogenic dye", "protocol": "FIG. 3 Affinities of fluorogenic HaloTag™ ligands to HaloTag7D106A: The catalytically dead variant HaloTag7D106A was titrated against 3 different fluorogenic HaloTag™ ligands at 25 nM in a fluorescence intensity based binding assay (Halo-Siliconrhodamine, Halo-Janelia Fluor 646 and Halo-Janelia Fluor 635). Structures of the fluorogenic ligands are shown in each graph. Data were fitted to a one-site binding model and derived Kd values are shown in the graph. Due to the low affinity of the fluorogenic substrates, data points at […] were extrapolated based on fully labelled Halo Tag™ 7 (resembling complete binding) to improve fitting. Data points at 1 nM correspond to values without any protein added, but were placed at low concentrations to appear on the logarithmic scale. All experiments were performed in triplicates, error bars and annotated uncertainties represent standard deviations.\nas §1, §2"}, "physchem": {"test": "physchem", "settings": "pH 7.3"}}, "note": "pKd: −log10 of the molar value. No end group written: not given here.", "data": [{"compound": "CN(C)c1ccc2c(-c3cc(C(=O)NCCOCCOCCCCCCCl)ccc3C(=O)[O-])c3ccc(=[N+](C)C)cc-3oc2c1", "note": "[Halo-tetramethylrhodamine, N-(9-(2-carboxy-5-((2-(2-((6-chlorohexyl)oxy)ethoxy)ethyl)carbamoyl)phenyl)-6-(dimethylamino)-3H-xanthen-3-ylidene)-N-methylmethanaminium]", "values": [{"measurement": "pKd", "setting": "HaloTag7D106A [1]", "result": 5.18}, {"measurement": "pKd", "setting": "cpHaloΔ9merD106A", "result": 3.94}, {"measurement": "background labelling of cpHaloΔ9mer", "setting": "cpHaloΔ9mer", "result": "Very low background labelling"}]}, {"compound": "O=C(NCCOCCOCCCCCCCl)c1ccc(C(=O)O)c(-c2c3cc(F)c(=O)cc-3oc3cc(O)c(F)cc23)c1", "note": "[Halo-Oregon Green, 4-((2-(2-((6-chlorohexyl)oxy)ethoxy)ethyl)carbamoyl)-2-(2,7-difluoro-6-hydroxy-3-oxo-3H-xanthen-9-yl)benzoic acid]", "values": [{"measurement": "pKd", "setting": "HaloTag7D106A [1]", "result": 4.40}]}, {"compound": "C[Si]1(C)C2=CC(=[N+]3CC(F)C3)C=CC2=C(c2cc(C(=O)NCCOCCOCCCCCCCl)ccc2C(=O)O)c2ccc(N3CC(F)C3)cc21", "note": "(stereo not drawn) [1-(10-(2-carboxy-5-((2-(2-((6-chlorohexyl)oxy)ethoxy)ethyl)carbamoyl)phenyl)-7-(3-fluoroazetidin-1-yl)-5,5-dimethyldibenzo[b,e]silin-3(5H)-ylidene)-3-fluoroazetidin-1-ium]", "values": [{"measurement": "pKd", "setting": "HaloTag7D106A [2]", "result": 3.76}]}, {"compound": "O=C(NCCOCCOCCCCCCCl)c1ccc(C(=O)[O-])c(-c2c3ccc(=[N+]4CCC4)cc-3oc3cc(N4CCC4)ccc23)c1", "note": "[Halo-tetramethylrhodamine-azetidine, 1-(6-(azetidin-1-yl)-9-(2-carboxy-5-((2-(2-((6-chlorohexyl)oxy)ethoxy)ethyl)carbamoyl)-phenyl)-3H-xanthen-3-ylidene)azetidin-1-ium]", "values": [{"measurement": "pKd", "setting": "HaloTag7D106A [1]", "result": 5.36}, {"measurement": "pKd", "setting": "cpHaloΔ9merD106A", "result": 3.64}]}, {"compound": "C[Si]1(C)C2=CC(=[N+]3CCC3)C=CC2=C(c2cc(C(=O)NCCOCCOCCCCCCCl)ccc2C(=O)O)c2ccc(N3CCC3)cc21", "note": "[Halo-silicon-rhodamine-azetidine (JF646), 1-(7-(azetidin-1-yl)-10-(2-carboxy-5-((2-(2-((6-chlorohexyl)oxy)ethoxy)ethyl)-carbamoyl)phenyl)-5,5-dimethyldibenzo[b,e]silin-3(5H)-ylidene)azetidin-1-ium]", "values": [{"measurement": "pKd", "setting": "HaloTag7D106A [2]", "result": 4.26}]}, {"compound": "N=c1ccc2c(-c3cc(C(=O)NCCOCCOCCCCCCCl)ccc3C(=O)O)c3ccc(N)c(S(=O)(=O)O)c3oc-2c1S(=O)(=O)O", "note": "[Halo-Alexa Fluor 488, 6-amino-9-(2-carboxy-5-((2-(2-((6-chlorohexyl)oxy)ethoxy)ethyl)carbamoyl)phenyl)-3-iminio-3H-xanthene-4,5-disulfonate]", "values": [{"measurement": "pKd", "setting": "HaloTag7D106A [1]; HaloTag7D106A, FP binding assay, 25 nM dye, one-site binding model, read-out: Kd", "result": 4.03}]}, {"compound": "CN(C)c1ccc2c(c1)[Si](C)(C)C1=CC(=[N+](C)C)C=CC1=C2c1cc(C(=O)NCCOCCOCCCCCCCl)ccc1C(=O)O", "note": "[Halo-silicon-rhodamine, N-(10-(2-carboxy-5-((2-(2-((6-chlorohexyl)oxy)ethoxy)ethyl)carbamoyl)phenyl)-7-(dimethylamino)-5,5-dimethyldibenzo[b,e]silin-3(5H)-ylidene)-N-methylmethanaminium]", "values": [{"measurement": "background labelling of cpHaloΔ9mer", "setting": "cpHaloΔ9mer", "result": "Very low background labelling"}, {"measurement": "pKd", "setting": "HaloTag7D106A [2]", "result": 4.64}]}, {"compound": "CN(C)c1ccc2c(c1)C(C)(C)C1=CC(=[N+](C)C)C=CC1=C2c1cc(C(=O)NCCOCCOCCCCCCCl)ccc1C(=O)[O-]", "note": "[Halo-carbopyronine, N-(10-(2-carboxy-5-((2-(2-((6-chlorohexyl)oxy)ethoxy)ethyl)carbamoyl)phenyl)-7-(dimethylamino)-9,9-dimethylanthracen-2(9H)-ylidene)-N-methylmethanaminium]", "values": [{"measurement": "pKd", "setting": "HaloTag7D106A [1]", "result": 6.21}, {"measurement": "pKd", "setting": "cpHaloΔ9merD106A", "result": 4.04}, {"measurement": "background labelling of cpHaloΔ9mer", "setting": "cpHaloΔ9mer", "result": "slightly stronger background labelling"}]}, {"compound": "ARETFQAFR [9mer peptide]", "values": [{"measurement": "solubility", "setting": "physchem", "result": "~30", "unit": "mM"}]}]}
